Assay results reported in patent publication US6087131A, “β-glucosidase from filamentous fungi, and uses thereof” (Institut National de la Recherche Agronomique - I.N.R.A., priority 1995, dated 2000).
pKi: −log10 of the molar value.

Legend:
Format in all cases: biochemical
[1] = system: β-glucosidase BGII of A. oryzae (CBS 12559), exocellular, molecular mass about 30,000; test: Inhibition of β-glucosidase BGII activity by glucose or δ-gluconolactone, PNPG as substrate; conditions: PNPG 4 mM, 20 minutes at 40° C.
Experimental: (§1) The assay of the β-glucosidase activity is carried out by incubating, for 20 minutes at 40° C., 1 volume of enzymatic sample with 1 volume of p-nitrophenol β-D-glucoside (PNPG) (4 mM in 100 mM acetate buffer, pH 4.4). The quantity of PNP (pnitrophenol) liberated is estimated by adding 6 volumes of 0.1 M Na2 CO3 and monitoring the absorbance reading at 400 nm. The enzymatic activity is expressed in nanokatals per ml (nkat/ml) of enzymatic solution. One nanokatal corresponds to the number of nanomoles of PNP liberated per second under the abovementioned conditions.
(§2) The residual enzymatic activity is estimated after incubating the mixture for 20 minutes at 40° C.

[2] = system: β-glucosidase BGI of A. oryzae (CBS 12559), molecular mass greater than 130,000; test: Inhibition of β-glucosidase BGI activity by glucose or δ-gluconolactone, PNPG as substrate
Experimental: as §1, §2

[3] = molecular target: T1, β-glucosidase of A. niger purified from the KLERZYME enzymatic preparation (Aspergillus niger, UniProt A2RAL4); test: Inhibition of KLERZYME β-glucosidase activity by glucose or δ-gluconolactone, PNPG as substrate
T1 construct: purchased GIST-BROCADES, SECLIN, FRANCE
T1 sequence (A2RAL4 20-860): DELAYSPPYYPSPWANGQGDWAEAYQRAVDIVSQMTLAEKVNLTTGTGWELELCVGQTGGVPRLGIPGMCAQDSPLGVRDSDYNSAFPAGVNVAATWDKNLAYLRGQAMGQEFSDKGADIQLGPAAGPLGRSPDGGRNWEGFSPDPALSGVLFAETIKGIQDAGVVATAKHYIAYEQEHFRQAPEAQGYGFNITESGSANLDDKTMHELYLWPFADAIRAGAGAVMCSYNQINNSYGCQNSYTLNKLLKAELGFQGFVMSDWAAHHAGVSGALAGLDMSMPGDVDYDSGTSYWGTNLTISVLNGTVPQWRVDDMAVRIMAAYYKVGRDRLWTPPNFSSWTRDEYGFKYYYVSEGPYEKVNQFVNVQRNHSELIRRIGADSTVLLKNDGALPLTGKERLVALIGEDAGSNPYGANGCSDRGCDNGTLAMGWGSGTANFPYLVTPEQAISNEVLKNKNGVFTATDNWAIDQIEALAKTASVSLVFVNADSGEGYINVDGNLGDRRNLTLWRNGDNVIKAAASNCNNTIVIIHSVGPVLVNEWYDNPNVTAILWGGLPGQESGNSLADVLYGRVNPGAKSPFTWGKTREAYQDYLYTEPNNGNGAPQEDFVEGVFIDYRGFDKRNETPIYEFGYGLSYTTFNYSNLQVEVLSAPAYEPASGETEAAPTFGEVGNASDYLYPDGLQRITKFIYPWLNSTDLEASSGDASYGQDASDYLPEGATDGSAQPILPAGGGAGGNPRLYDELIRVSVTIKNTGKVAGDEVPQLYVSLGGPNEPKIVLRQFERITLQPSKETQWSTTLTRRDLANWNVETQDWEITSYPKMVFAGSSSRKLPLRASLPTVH
Experimental: as §1, §2

Row | Structure (SMILES) | activity retained in the presence of glucose ([1]; 25 g/l of glucose) | inhibition in the presence of glucose ([1]; 100 g/l of glucose) | activity remaining in the presence of glucose ([2]; 25 g/l of glucose, PNPG 4 mM, 20 minutes at 40° C.) | inhibition in the presence of glucose ([2]; 50 g/l of glucose, PNPG 4 mM, 20 minutes at 40° C.) | pKi ([2]; read-out: inhibition constant (Ki) for glucose, with respect to PNPG, Lineweaver-Burk representation, competitive inhibitor) | remaining activity at 25000 µg/mL ([3]; 20 min, pH 4.4, read-out: activity remaining in the presence of glucose) | inhibition in the presence of glucose ([3]; KLERZYME β-glucosidase, 50 g/l of glucose, PNPG 4 mM, 20 minutes at 40° C.) | activity retained in the presence of gluconolactone ([1]; 1 g/l of gluconolactone) | activity retained in the presence of gluconolactone ([1]; 10 g/l of gluconolactone) | inhibition in the presence of gluconolactone ([2]; 1 g/l of gluconolactone, PNPG 4 mM, 20 minutes at 40° C.) | inhibition in the presence of gluconolactone ([3]; KLERZYME β-glucosidase, 1 g/l of gluconolactone, PNPG 4 mM, 20 minutes at 40° C.)
1 | OC[C@H]1OC(O)[C@H](O)[C@@H](O)[C@@H]1O (some centres unmarked) [glucose] | about 80% | 57% | about 15% | practically completely inhibited | 2.46 | ~10% | practically completely inhibited | – | – | – | –
2 | O=C1O[C@H](CO)[C@@H](O)[C@H](O)[C@H]1O [gluconolactone, δ-gluconolactone] | – | – | – | – | – | – | – | more than 30% | 20% | practically completely inhibited | practically completely inhibited
